Tests used:
Format in all cases: functional
A549 [1] = assay: Induction of apoptosis in human A549 cells assessed as late apoptotic cells at 1 uM measured after 24 hrs by Annexin V-PE/7-AAD dual staining based flow cytometry (reference value: […])
A549 [2] = assay: Induction of apoptosis in human A549 cells assessed as early apoptotic cells at 1 uM measured after 24 hrs by Annexin V-PE/7-AAD dual staining based flow cytometry (reference value: 4.04 %)
A549 [3] = assay: Induction of apoptosis in human A549 cells assessed as necrotic cells at 1 uM measured after 24 hrs by Annexin V-PE/7-AAD dual staining based flow cytometry (reference value: 0.150 %)
A549 [4] = assay: Induction of apoptosis in human A549 cells assessed as live cells at 1 uM measured after 24 hrs by Annexin V-PE/7-AAD dual staining based flow cytometry (reference value: 93.3 %)
SW480 = assay: Antitumor activity against human SW480 cells assessed as inhibition of cell growth at 40 uM incubated for 48 hrs by MTS assay relative to control
HL-60 = assay: Antitumor activity against human HL-60 cells assessed as inhibition of cell growth at 40 uM incubated for 48 hrs by MTS assay relative to control
SMMC-7721 = assay: Antitumor activity against human SMMC-7721 cells assessed as inhibition of cell growth at 40 uM incubated for 48 hrs by MTS assay relative to control
A549 [5] = assay: Antitumor activity against human A549 cells assessed as inhibition of cell growth at 40 uM incubated for 48 hrs by MTS assay relative to control
MCF7 = assay: Antitumor activity against human MCF7 cells assessed as inhibition of cell growth at 40 uM incubated for 48 hrs by MTS assay relative to control

Row | Compound | Activity (A549 [1]) [%] | Activity (A549 [2]) [%] | Activity (A549 [3]) [%] | Activity (A549 [4]) [%] | inhibition at 40 µM (SW480) [%] | inhibition at 40 µM (HL-60) [%] | inhibition at 40 µM (SMMC-7721) [%] | inhibition at 40 µM (A549 [5]) [%] | inhibition at 40 µM (MCF7) [%]
1 | COc1cccc2c1C(=O)c1c(O)c3c(c(O)c1C2=O)C[C@@](O)(C(=O)CO)C[C@@H]3O[C@H]1C[C@H](N)[C@H](O)[C@H](C)O1 [DOXORUBICIN] | 18.4 | 30.8 | 0.965 | 49.8 |  |  |  |  | 
2 | O=C(CC1(O)C(=O)N(CN2CCOCC2)c2ccccc21)c1ccc(Cl)cc1 (centres undefined) |  |  |  |  | 15.3 | 15.6 | 15.2 | 1.72 | 8.23
3 | NC(=O)CN1C(=O)C(O)(CC(=O)c2ccc3c(c2)OCO3)c2ccccc21 (centres undefined) |  |  |  |  | 14.8 | 21.6 | 11.6 | 11.2 | 6.11
4 | COc1cc(C(C)=O)ccc1OC(=O)C(C)N1C(=O)c2ccccc2C1=O (centres undefined) |  |  |  |  | 4.18 | 8.86 | 6.87 | 6.5 | 15.3
5 | O=C(NCC1(N2CCOCC2)CCCCC1)c1ccc2c(c1)C(=O)N(c1ccc(F)cc1)C2=O |  |  |  |  | 8.82 | 11.5 | 16.4 | 9.68 | 13.6
6 | Cc1cccc(NC(=O)CN2C(=O)C(=O)c3ccccc32)c1 |  |  |  |  | 31.8 | 25.1 | 40.2 | 7.75 | 45.2
7 | CCOC(=O)C1(Cc2ccccc2)C(=O)N(CCCN(C)C)c2ccccc21 (centres undefined) |  |  |  |  | 3.98 | 5.85 | 12.8 | 7.46 | 28.9
8 | CC1=CC(C2CC(=O)N(c3ccccc3C)C2=O)CC2C(=O)N(c3ccccc3C)C(=O)C12 (centres undefined) |  |  |  |  | 6.73 | 10.7 | 9.68 | 4.1 | 12.3
9 | N#CCCCN1C(=O)C(O)(CC(=O)c2ccc3c(c2)OCCO3)c2ccccc21 (centres undefined) |  |  |  |  | 13.5 | -21.4 | 11.5 | 7.13 | -0.19
